According to patent US20230303486A1, “CYCLOBUTYL-UREA DERIVATIVES” (Idorsia Pharmaceuticals Ltd, priority 2020, published 2023):
Read-outs that look alike come from different tables or passages of the source.

Key:
[1] = tested on: audiogenic generalized convulsive seizures in DBA/2J mice; experiment: Audiogenic seizure-sensitive mouse model of generalized convulsive seizures; type: in vivo; conditions: challenge 1h
Method: Compounds were formulated in a 10% polyethylene glycol 400 (PEG 400) / 90% aqueous solution of 0.5 % methylcellulose (MC 0.5%). Firstly drugs are dissolved in PEG 400 and then suspended in MC 0.5 % for oral gavage at Xmg/5 mL/kg (X see table).
• 1. Procedure: Following two days of acclimatisation, auditory seizures are induced in male juvenile DBA/2J mice (22-24 days old; Janvier Labs, France). Each mouse is placed individually in the exposure chamber, an hemispheric acrylic glass dome (diameter: 50 cm) within a sound-attenuated box. The soundattenuated box is equipped with two house lights and a camera system (Fire-I from Unibrain) in order to observe and record the behavioral seizure response. After 60 seconds of habituation, the stimulus, a mixed frequency tone of 15-20 kHz at 110 dB (SASLab Lite, Avisoft Bioacoustics), is played from a speaker that is placed on the top center of the dome. […] Seizures are classified as following: stage 0, normal behavior; stage 1, wild running; stage 2, generalized clonus; stage 3, tonic extension of the hind limbs. • 2. Compounds testing: Acute compound effects on audiogenic generalized convulsive seizures are evaluated in independent groups of 8-10 mice randomly assigned. Following oral administration of compound or vehicle, the maximum seizure stage during sound exposure is assessed. Compounds are given 1 hour before exposure to the stimulus. Each mouse is exposed to the auditory stimulus only once and euthanized afterwards by CO2 inhalation.

[2] = target: T1, Kv7.2/7.3 (human KCNQ2 and KCNQ3 genes) in HEK293 cells (Homo sapiens, UniProt O43525+O43526); experiment: Kv7.2/3 assay (FLIPR potassium assay, agonist mode); type: cell-based; conditions: Kv7.2/7.3 activation, responses relative to Flupirtine
T1 construct: host or cells: HEK293
Method: HEK293 cells were stably transfected with the appropriate ion channel cDNA(s) (human KCNQ2 and KCNQ3 genes). Cells were cultured in Dulbecco’s Modified Eagle Medium /Nutrient mixture F-12 (D-MEM/F-12) supplemented with 10% fetal bovine serum, 100 U/mL penicillin G sodium, 100 µg/mL streptomycin sulfate and selection antibiotics. FLIPR Test Procedure: For FLIPR assay, cells were plated in 384-well black clear-bottomed microtiter plates (BD Biocoat Poly-D-Lysine Multiwell Cell Culture Plate) at 15′000 to 30′000 cells per well. Cells were incubated at 37° C. overnight or until cells reached sufficient density in the wells (near confluent monolayer) to use in fluorescence assays. […] Assays were performed with the FLIPR potassium assay kit (Molecular Devices) according to the manufacturer’s instructions. Dye-loading: Growth media was removed and replaced with 20 µL of dye loading buffer for 60 min at room temperature. FLIPR Recording (agonist mode): Stock solutions of test compounds were prepared at a concentration of 33.3 mM in DMSO. 5 µL of 5x concentrated test, vehicle, or control compounds solutions prepared in the stimulation buffer (K^+-free buffer with 5 mM TI^+) were added to each well and fluorescence recording was continued for 5 min. The agonist effect (EC50 and % effect) of test or control compounds on Kv7 channels was determined as follows: Raw data was exported using Screenworks® 4.2 software and the fluorescence traces were analysed using Microsoft Excel (Microsoft Corp., Redmond, WA). The test compounds responses were expressed as % of maximum response of the control compound Flupirtine (Sigma-Aldrich), which was tested at concentrations ranging from 0.03 to 100 µM. Concentration-response data were fitted to a Hill equation. Non-linear least squares fits were made assuming a simple binding model. If appropriate, fits were weighted by the standard deviation. No assumptions about the fit parameters were made; the fit parameters were determined by the algorithm.

[3] = tested on: primary neuronal cultures from embryonic rat brains; experiment: Rat oscillation assay (FLIPR, neuronal calcium oscillations); type: cell-based; conditions: Rattus norvegicus
Method: This assay is a functional phenotypic assay designed to mimic epileptic seizures using primary neuronal cultures from embryonic rat brains, which form a functional neuronal network that generate synchronized intracellular calcium concentration oscillations when cultured at high density in 384-well plate. The epileptic phenotype is induced by incubating the neurons in magnesium-free assay buffer, that results in increased probability of NMDA receptor activation, leading to an increased frequency and amplitude of intracellular calcium oscillations. Once neurons are incubated with the calcium indicator dye Fluo-8 AM (Tebu-bio), neuronal calcium oscillations can be monitored in real time using FLIPR® Tetra (fluorometric plate reader, Molecular Devices). With these recordings, the effect of anti-epileptic drugs can be quantified. The anti-epileptic effect of compounds, which activate directly or indirectly the Kv7 channels can be modulated by the Kv7 channel blocker XE-991. The assay was performed as described previously (Pacico N, Mingorance-Le Meur A. New In Vitro Phenotypic Assay for Epilepsy: Fluorescent Measurement of Synchronized Neuronal Calcium Oscillations. PLoS ONE 9(1) 2014) with modifications described hereafter.
Animal care followed standard procedures in accordance with swiss institutional guidelines. Dissociated neuronal cultures were obtained from cerebral cortices of embryonic Wistar rats at embryonic stage E18 (Charles River). The uterine horns were removed by caesarian surgery from deeply anesthetized rats (Isofurane) and sacrificed by decapitation. The embryos were decapitated by closing forceps. The brains were isolated and dissected one by one in ice-cold PBS (Life Technologies) under optical control using a binocular. Meninges, olfactory bulbs, and basal ganglia were removed. Cortical hemispheres (still including the hippocampus) were cut in small pieces with tweezers and placed on ice in prechilled Hibernate-E medium (Life technology). The hemispheres were then incubated in 10 mL of Hibernate-E containing 15 U/mL papain (Worthington) for 25 min at 30° C. with gentle mixing every 10 min. Genomic DNA was then digested by prolonging the incubation during 10 min at 37° C. in presence of 4 U/mL rDNase I (Ambion). The obtained suspension was then centrifuged at 800 g for 5 min and the cell pellet was resuspended in 2 mL Hibernate-E and gently dissociated by pipetting up and down 10 times with a plastic Pasteur pipette resulting in a homogenous cell suspension. This suspension was immediately filtered through a 70 µm cell strainer (MACS® SmartStrainer, Miltenyi), collected in 10 mL Hibernate-E and centrifuged at 800 g for 5 min. The cell pellet was resuspended in Neurobasal medium, supplemented with 2% B-27, 0.5 mM Glutamax-I, 100 U/mL penicillin, 100 µg/mL streptomycin (Life Technologies) and diluted at the final concentration of 300′000 cells/mL. One day before plating the cells, 384-well plates were coated with 25 µL/well of 0.1 % poly-L-lysine solution (Sigma), incubated overnight at 37° C., washed two times with sterile distilled water and allowed to dry at room temperature for >2 h. The neurons were seeded at a density of 15′000 cells/well in 50 µL/well in a 384-well black, clear-bottomed plates (Corning) and subsequently maintained in an incubator at 37° C., 5% CO2 and 95% humidity for 8 to 10 days. After 3 and 7 days, 40% of media was renewed under sterile conditions.
Neurons seeded in the assay plates were washed with Hank’s balanced salt solution (HBSS) devoid of Ca^2+ and Mg^2+, supplemented with 20 mM HEPES (Life Technologies) and 2 mM CaCl2 (Sigma), pH 7.4 (hereafter called Assay buffer) using a Biotek EL406 plate washer. Neurons were loaded with 1 µM Fluo-8 AM in Assay buffer for 15 min at 37° C., 5% CO2. […]

[4] = tested on: seizure activity in various rodent models; conditions: acute seizure models, DBA2 mice, rat kindling model; cited from earlier work
[5] = tested on: Knock-in mice carrying a KCNQ2 or KCNQ3 variant; conditions: knock-in mice with spontaneous seizures, reduced seizure thresholds; cited from earlier work
[6] = tested on: patients with drug-resistant focal-onset seizures; conditions: two phase three trials; cited from earlier work
[7] = 20 min, 20 min after compound addition, AUC of fluorescence, read-out: FLIPR: IC50 [nM] 20 min
[8] = Cortical neurone, acute phase, ratio of AUC fluorescence before and after compound addition, rat cortical neurons, Mg-free buffer, read-out: FLIPR: IC50 [nM] acute

Row | SMILES | Seizure stage [% vs. vehicle] ([1]; 30 mg/kg po) | EC50 [2] [nM] | IC50 [3, 7] [nM] | IC50 [3, 8] [nM] | Seizure stage [% vs. vehicle] ([1]; 15 mg/kg po) | seizure activity [4] | seizures [5] | seizure frequency [6]
1 | O=C(NCc1cccc(OC(F)(F)F)c1)NC12CC(F)(C1)C2 [Example 24, 1-(3-Fluoro-bicyclo[1.1.1]pent-1-yl)-3-(3-trifluoromethoxybenzyl)-urea] | -100 | 143 | 198 | 208 | – | – | – | –
2 | O=C(NCc1cccc(C(F)(F)F)c1)NC12CC(C(F)(F)F)(C1)C2 [Example 37, 1-(3-Trifluoromethyl-benzyl)-3-(3-trifluoromethyl-bicyclo[1.1.1]pent-1-yl)-urea] | – | 30 | 32 | 26 | -100 | – | – | –
3 | CCOC(=O)Nc1ccc(NCc2ccc(F)cc2)cc1N [Retigabine/ezogabine] | – | – | – | – | – | reduces seizure activity | attenuated | significantly reduced seizure frequency
